Calls of active or inactive are those of the source. The calls are words filed in the database; no cut-off is given here.
Legend:
DG-75 [1] = assay: Induction of apoptosis in human DG75 cells assessed as cell death at 2.5 uM measured after 24 hrs by flow cytometry; assay type: functional, cell-based
HeLa [2] = assay: Reduction in cell viability of human HeLa cells after 24 hrs by Alamar blue viability assay; assay type: functional, cell-based
DG-75 [3] = assay: Induction of apoptosis in human DG75 cells assessed as cell death at 2.5 uM after 24 hrs by flow cytometry (reference value: 0.8 +/- 0.25%); assay type: functional
MUTU-I [4] = assay: Induction of apoptosis in human MUTU-I cells assessed as decrease in cells at G2/M phase measured at 2.5 uM after 24 hrs by propidium iodide assay; assay type: functional, cell-based
MUTU-I [5] = assay: Induction of apoptosis in human MUTU-I cells assessed as increase in intracellular cysteine proteases; assay type: functional, cell-based
DG-75 [6] = assay: Induction of apoptosis in human DG75 cells assessed as PARP cleavage by Western blotting analysis; assay type: functional, cell-based
DG-75 [7] = assay: Induction of apoptosis in human DG75 cells assessed as cell death at 2.5 uM in presence of NAC ROS inhibitor; assay type: functional, cell-based
DG-75 [8] = assay: Induction of apoptosis in human DG75 cells assessed as increase in caspase 3/7 activation by luminescence plate reader; assay type: functional, cell-based
HeLa [9] = assay: Induction of apoptosis in human HeLa cells assessed as PARP cleavage by Western blotting analysis; assay type: functional, cell-based
[10] = biological target: Sodium-dependent serotonin transporter (Homo sapiens, UniProt P31645); assay: Inhibition of human SERT expressed in HEK293-MSR cells by 5-HT uptake assay; assay type: cell-based
Chain of Sodium-dependent serotonin transporter (P31645 whole entry): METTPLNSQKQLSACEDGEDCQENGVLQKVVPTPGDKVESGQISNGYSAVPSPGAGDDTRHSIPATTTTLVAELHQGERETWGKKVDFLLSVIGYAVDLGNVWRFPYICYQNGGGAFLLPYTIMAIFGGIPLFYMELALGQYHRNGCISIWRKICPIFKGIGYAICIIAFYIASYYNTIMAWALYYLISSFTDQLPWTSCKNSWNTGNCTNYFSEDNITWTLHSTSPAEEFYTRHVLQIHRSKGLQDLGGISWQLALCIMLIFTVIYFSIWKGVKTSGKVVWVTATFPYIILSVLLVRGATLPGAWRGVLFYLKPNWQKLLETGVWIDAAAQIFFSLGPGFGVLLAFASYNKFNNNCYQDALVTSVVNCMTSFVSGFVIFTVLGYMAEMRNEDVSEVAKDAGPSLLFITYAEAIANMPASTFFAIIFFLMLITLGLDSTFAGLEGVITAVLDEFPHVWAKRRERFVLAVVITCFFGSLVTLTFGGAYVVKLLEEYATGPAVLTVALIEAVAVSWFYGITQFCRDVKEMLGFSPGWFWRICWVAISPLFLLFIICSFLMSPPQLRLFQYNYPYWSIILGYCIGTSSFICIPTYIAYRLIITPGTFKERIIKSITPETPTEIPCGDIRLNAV

MUTU-I [11] = assay: Induction of apoptosis in human MUTU-I cells assessed as cell death at 2.5 uM in presence of NAC ROS inhibitor; assay type: functional, cell-based
DG-75 [12] = assay: Reduction in cell viability of human DG75 cells after 24 hrs by Alamar blue viability assay; assay type: functional, cell-based; settings: DG-75, 24 h
[13] = Reduction in cell viability of human MUTU-I cells after 24 hrs by Alamar blue viability assay; assay type: functional, cell-based
MUTU-I [14] = assay: Induction of apoptosis in human MUTU-I cells assessed as cell death at 2.5 uM after 2 hrs by flow cytometry; assay type: functional, cell-based
[15] = (§1) Induction of apoptosis in human MUTU-I cells assessed as cell death at 2.5 uM after 24 hrs by flow cytometry (reference value: 3.7 +/- 0.4%); assay type: functional
MUTU-I [16] = assay: Induction of apoptosis in human MUTU-I cells assessed as PARP cleavage by Western blotting analysis; assay type: functional, cell-based
HeLa [17] = assay: Induction of apoptosis in human HeLa cells assessed as decrease in cells at G2/M phase measured at 2.5 uM after 24 hrs by propidium iodide assay; assay type: functional, cell-based
HeLa [18] = assay: Induction of apoptosis in human HeLa cells assessed as cell death at 2.5 uM in presence of NAC ROS inhibitor; assay type: functional, cell-based
HeLa [19] = assay: Induction of apoptosis in human HeLa cells assessed as cell death at 2.5 uM after 24 hrs by flow cytometry (reference value: 7 +/- 1.9%); assay type: functional
HeLa [20] = assay: Induction of apoptosis in human HeLa cells assessed as cell death at 2.5 uM after 8 hrs by flow cytometry; assay type: functional, cell-based
HeLa [21] = assay: Induction of apoptosis in human HeLa cells assessed as increase in intracellular cysteine proteases; assay type: functional, cell-based
HeLa [22] = assay: Induction of apoptosis in human HeLa cells assessed as increase in caspase 3/7 activation by luminescence plate reader; assay type: functional, cell-based
MUTU-I [23] = assay: Induction of apoptosis in human MUTU-I cells assessed as increase in caspase 3/7 activation by luminescence plate reader; assay type: functional, cell-based
DG-75 [24] = assay: Induction of apoptosis in human DG75 cells assessed as decrease in cells at G2/M phase measured at 2.5 uM after 24 hrs by propidium iodide assay; assay type: functional, cell-based
MUTU-I [25] = assay: as §1; assay type: functional
DG-75 [26] = assay: Induction of apoptosis in human DG75 cells assessed as increase in cells at G2/M phase measured at 2.5 uM after 24 hrs by propidium iodide assay; assay type: functional, cell-based

Row | SMILES | Activity (DG-75 [1]) | IC50 (HeLa [2]) [µM] | Activity (DG-75 [3]) | Activity (MUTU-I [4]) | Activity (MUTU-I [5]) | Activity (DG-75 [6]) | Activity (DG-75 [7]) | Activity (DG-75 [8]) | Activity (HeLa [9]) | IC50 [10] [µM] | Activity (MUTU-I [11]) | IC50 (DG-75 [12]) [µM] | IC50 [13] [µM] | Activity (MUTU-I [14]) | Activity [15] [%] | Activity (MUTU-I [16]) | Activity (HeLa [17]) | Activity (HeLa [18]) | Activity (HeLa [19]) | Activity (DG-75 [24]) | also measured
1 | CN(CCCN1c2ccccc2CCc2ccccc21)CCOCCOCCOCCN(C)CCCN1c2ccccc2CCc2ccccc21 | Active | 1.58 | 54.6% | Active | Active | inactive | Active | inactive | Active | 5.5 | Active | 1.91 | 1.15 | Active | 46.3 | Active | Active | Active | 46% | Active | Activity (HeLa [20]): Active; Activity (HeLa [21]): Active; Activity (HeLa [22]): Active; Activity (MUTU-I [23]): Active
2 | CNCCCN1c2ccccc2CCc2ccccc21 [DESIPRAMINE] | – | 17.8 | – | inactive | – | – | – | – | – | – | – | 39.8 | 7.94 | – | – | – | inactive | – | – | inactive | –
3 | CN(CCCN1c2ccccc2CCc2ccccc21)C(=O)COCCOCC(=O)N(C)CCCN1c2ccccc2CCc2ccccc21 | – | 22.9 | – | inactive | – | – | – | – | – | 46 | – | 18.6 | 5.75 | – | – | – | inactive | – | – | inactive | –
4 | CC(=O)O[C@H]1C(=O)[C@@]2(C)[C@H]([C@H](OC(=O)c3ccccc3)[C@]3(O)C[C@H](OC(=O)[C@H](O)[C@@H](NC(=O)c4ccccc4)c4ccccc4)C(C)=C1C3(C)C)[C@]1(OC(C)=O)CO[C@@H]1C[C@@H]2O | – | – | inactive | – | – | – | – | – | – | – | – | – | – | – | – | – | – | – | Active | – | Activity (MUTU-I [25]): Active; Activity (DG-75 [26]): Active
5 | CN(C)CCCN1c2ccccc2CCc2ccccc21 [IMIPRAMINE] | – | 40.7 | – | inactive | – | – | – | – | – | – | – | > 50 | 14.1 | – | – | – | inactive | – | – | inactive | –
6 | CN(CCCN1c2ccccc2CCc2ccccc21)CCOCCOCCN(C)CCCN1c2ccccc2CCc2ccccc21 | Active | 1.41 | 40.9% | Active | Active | inactive | Active | inactive | Active | 4.8 | Active | 1.51 | 0.62 | Active | 56.2 | Active | Active | Active | 44.4% | Active | Activity (HeLa [20]): Active; Activity (HeLa [21]): Active; Activity (HeLa [22]): Active; Activity (MUTU-I [23]): Active
7 | CN(CCCN1c2ccccc2CCc2ccccc21)CCOCCN(C)CCCN1c2ccccc2CCc2ccccc21 | Active | 1.74 | 22.8% | Active | Active | inactive | Active | inactive | Active | 6 | Active | 1.89 | 1.05 | Active | 66.6 | Active | Active | Active | 61.7% | Active | Activity (HeLa [20]): Active; Activity (HeLa [21]): Active; Activity (HeLa [22]): Active; Activity (MUTU-I [23]): Active
